In patent US20260042731A1, “(2,4-DICHLOROPHENOXY)ACETIC ACID ANALOGS” (CORTEVA AGRISCIENCE LLC, priority 2022, published 2026):
Where “and” joins values, the source holds several entries; their conditions need not be identical. Identical values can stand only once. Like-named read-outs stand apart in the source and are kept apart here.

How the values were obtained:
[1] = tested on: Ambrosia artemisiifolia (AMBEL), common ragweed; experiment: Postemergence herbicide evaluation, growth of Ambrosia artemisiifolia (AMBEL); assay type: in vivo; conditions: Ambrosia artemisiifolia, post-emergence, read-out: AVE. AMBEL, percent reduction in plant size relative to the untreated control; for pest or weed control at 280 g/ha: 280 g ae/ha; for pest or weed control at 560 g/ha: 560 g ae/ha
[2] = tested on: Amaranthus rudis (AMATA), tall water hemp; experiment: Postemergence herbicide evaluation, growth of Amaranthus rudis (AMATA); assay type: in vivo; conditions: Amaranthus tuberculatus, post-emergence, read-out: Ave. AMATA, percent reduction in plant size relative to the untreated control; for pest or weed control at 280 g/ha: 280 g ae/ha; for pest or weed control at 560 g/ha: 560 g ae/ha
[3] = tested on: weeds ABUTH, AMATA, AMBEL, CHEAL, ERICA; experiment: Postemergence herbicide evaluation, overall average % weed control (ABUTH, AMATA, AMBEL, CHEAL, ERICA); assay type: in vivo; conditions: post-emergence, read-out: Overall Ave % Weed Control; for pest or weed control at 280 g/ha: 280 g ae/ha; for pest or weed control at 560 g/ha: 560 g ae/ha
[4] = tested on: Abutilon theophrasti (ABUTH), velvetleaf; experiment: Postemergence herbicide evaluation, growth of Abutilon theophrasti (ABUTH); assay type: in vivo; conditions: Abutilon theophrasti, post-emergence, read-out: AVE. ABUTH, percent reduction in plant size relative to the untreated control; for pest or weed control at 280 g/ha: 280 g ae/ha; for pest or weed control at 560 g/ha: 560 g ae/ha
[5] = tested on: glyphosate resistant Conyza canadensis (L.) (ERICA), horseweed; experiment: Postemergence herbicide evaluation, growth of Conyza canadensis (ERICA); assay type: in vivo; conditions: Erigeron canadensis, post-emergence, read-out: Ave. ERICA, percent reduction in plant size relative to the untreated control; for pest or weed control at 280 g/ha: 280 g ae/ha; for pest or weed control at 560 g/ha: 560 g ae/ha
[6] = tested on: Chenopodium album (CHEAL), common lambsquarters; experiment: Postemergence herbicide evaluation, growth of Chenopodium album (CHEAL); assay type: in vivo; conditions: Chenopodium album, post-emergence, read-out: Ave. CHEAL, percent reduction in plant size relative to the untreated control; for pest or weed control at 280 g/ha: 280 g ae/ha; for pest or weed control at 560 g/ha: 560 g ae/ha
[7] = Volatility of compounds measured by thermogravimetric analysis (TGA); assay type: physicochemical

SMILES | pest or weed control at 280 g/ha ([1]; 168 h, 7 DAA) [%] | pest or weed control at 560 g/ha ([1]; 168 h, 7 DAA) [%] | pest or weed control at 280 g/ha ([1]; 336 h, 14 DAA) [%] | pest or weed control at 560 g/ha ([1]; 336 h, 14 DAA) [%] | pest or weed control at 280 g/ha ([1]; 504 h, 21 DAA) [%] | pest or weed control at 560 g/ha ([1]; 504 h, 21 DAA) [%] | pest or weed control at 280 g/ha ([2]; 168 h, 7 DAA) [%] | pest or weed control at 560 g/ha ([2]; 168 h, 7 DAA) [%] | pest or weed control at 280 g/ha ([2]; 336 h, 14 DAA) [%] | pest or weed control at 560 g/ha ([2]; 336 h, 14 DAA) [%] | pest or weed control at 280 g/ha ([2]; 504 h, 21 DAA) [%] | pest or weed control at 560 g/ha ([2]; 504 h, 21 DAA) [%] | pest or weed control at 280 g/ha ([3]; 168 h, 7 DAA) [%] | pest or weed control at 560 g/ha ([3]; 168 h, 7 DAA) [%] | pest or weed control at 280 g/ha ([3]; 336 h, 14 DAA) [%] | pest or weed control at 560 g/ha ([3]; 336 h, 14 DAA) [%] | pest or weed control at 280 g/ha ([3]; 504 h, 21 DAA) [%] | pest or weed control at 560 g/ha ([3]; 504 h, 21 DAA) [%] | pest or weed control at 280 g/ha ([4]; 168 h, 7 DAA) [%] | pest or weed control at 560 g/ha ([4]; 168 h, 7 DAA) [%] | other results
O=C(COc1ccc(Cl)cc1Cl)O/N=C/c1ccncc1 [Compound A30] | 85 | 96.5 | 90 | 97.5 | 100 | 100 | 75 | 94 | 96 | 93.5 | 92.5 | 99 | 78 | 86.1 | 91.5 | 95.5 | 95.4 | 98.6 | 62.5 | 80 | pest or weed control at 280 g/ha ([4]; 336 h, 14 DAA): 77.5%; pest or weed control at 560 g/ha ([4]; 336 h, 14 DAA): 96.5%; pest or weed control at 280 g/ha ([4]; 504 h, 21 DAA): 87.5%; pest or weed control at 560 g/ha ([4]; 504 h, 21 DAA): 99.5%; pest or weed control at 280 g/ha ([5]; 168 h, 7 DAA): 87.5%; pest or weed control at 560 g/ha ([5]; 168 h, 7 DAA): 80%; pest or weed control at 280 g/ha ([5]; 336 h, 14 DAA): 100%; pest or weed control at 560 g/ha ([5]; 336 h, 14 DAA): 100%; pest or weed control at 280 g/ha ([5]; 504 h, 21 DAA): 99%; pest or weed control at 560 g/ha ([5]; 504 h, 21 DAA): 94.5%; pest or weed control at 280 g/ha ([6]; 168 h, 7 DAA): 80%; pest or weed control at 560 g/ha ([6]; 168 h, 7 DAA): 80%; pest or weed control at 280 g/ha ([6]; 336 h, 14 DAA): 94%; pest or weed control at 560 g/ha ([6]; 336 h, 14 DAA): 90%; pest or weed control at 280 g/ha ([6]; 504 h, 21 DAA): 98%; pest or weed control at 560 g/ha ([6]; 504 h, 21 DAA): 100%; TGA Data (rate of weight loss, volatility) [7]: 0.9679 µg/min
O=C(COc1ccc(Cl)cc1Cl)O/N=C/c1ccccn1 [Compound A32] | 75 | 75 | 72.5 | 92.5 | 100 | 100 | 70 | 90 | 96 | 87.5 | 60 | 94 | 74 | 76.5 | 87.4 | 92.6 | 88.8 | 97.6 | 55 | 67.5 | pest or weed control at 280 g/ha ([4]; 336 h, 14 DAA): 74%; pest or weed control at 560 g/ha ([4]; 336 h, 14 DAA): 88.5%; pest or weed control at 280 g/ha ([4]; 504 h, 21 DAA): 87.5%; pest or weed control at 560 g/ha ([4]; 504 h, 21 DAA): 98.5%; pest or weed control at 280 g/ha ([5]; 168 h, 7 DAA): 87.5%; pest or weed control at 560 g/ha ([5]; 168 h, 7 DAA): 75%; pest or weed control at 280 g/ha ([5]; 336 h, 14 DAA): 97%; pest or weed control at 560 g/ha ([5]; 336 h, 14 DAA): 99.5%; pest or weed control at 280 g/ha ([5]; 504 h, 21 DAA): 99%; pest or weed control at 560 g/ha ([5]; 504 h, 21 DAA): 98%; pest or weed control at 280 g/ha ([6]; 168 h, 7 DAA): 82.5%; pest or weed control at 560 g/ha ([6]; 168 h, 7 DAA): 75%; pest or weed control at 280 g/ha ([6]; 336 h, 14 DAA): 97.5%; pest or weed control at 560 g/ha ([6]; 336 h, 14 DAA): 95%; pest or weed control at 280 g/ha ([6]; 504 h, 21 DAA): 97.5%; pest or weed control at 560 g/ha ([6]; 504 h, 21 DAA): 97.5%; TGA Data (rate of weight loss, volatility) [7]: 0.809 µg/min and 0.87 µg/min
